Our source for the IC50 and inhibition values is ChEMBL document CHEMBL4330107, “Synthesis and biological evaluation of 3-aryl-4-indolyl-maleimides as potent mutant isocitrate dehydrogenase-1 inhibitors” (Bioorg Med Chem, 2019).

Assay [1] addresses Isocitrate dehydrogenase [NADP] cytoplasmic (Homo sapiens, UniProt O75874, R132H). Nature of the assay: Inhibition of recombinant human N-terminal GST-fused IDH1 R132H mutant expressed in Escherichia coli using alpha-ketoglutarate as substrate preincubated for 15 mins followed by substrate addition.
The test system of assay [2] is Isocitrate dehydrogenase [NADP] cytoplasmic (Homo sapiens), O75874 [R132H]. Put plainly: Inhibition of recombinant human N-terminal GST-fused IDH1 R132H mutant expressed in Escherichia coli at 20 ug/ml using alpha-ketoglutarate as substrate preincubated for 15 mins followed by substrate addition relative to control.
In assay [3] the target is Isocitrate dehydrogenase [NADP] cytoplasmic (Homo sapiens, UniProt O75874, R132L). Put plainly: Inhibition of recombinant human N-terminal GST-fused IDH1 R132L mutant expressed in Escherichia coli using alpha-ketoglutarate as substrate preincubated for 15 mins followed by substrate addition.
Assay [4] is described as follows: Inhibition of bovine GDH using L-glutamate as substrate measured after 1 hr. Also on record: species or system Bos taurus.
The target of assay [5] is Isocitrate dehydrogenase [NADP] cytoplasmic (Homo sapiens, UniProt O75874, R132C). Put plainly: Inhibition of recombinant human N-terminal GST-fused IDH1 R132C mutant expressed in Escherichia coli using alpha-ketoglutarate as substrate preincubated for 15 mins followed by substrate addition.
Assay [6] is described as follows: Inhibition of Fructose-1,6-bisphosphatase expressed in Escherichia coli BL21 (DE3) by glucose-6-phosphate dehydrogenase/phosphoglucoisomerase coupled spectrophotometric method. Set-up: species or system Corynebacterium glutamicum.
Assay [7] has as its target Isocitrate dehydrogenase [NADP] cytoplasmic (Homo sapiens, UniProt O75874). Nature of the assay: Inhibition of recombinant human N-terminal GST-fused wild-type IDH1 using sodium (D)-isocitrate as substrate by fluorescence assay.
Assay [8] addresses T1, Hexokinase-4 (Homo sapiens, UniProt P35557).
T1 sequence (P35557 whole entry): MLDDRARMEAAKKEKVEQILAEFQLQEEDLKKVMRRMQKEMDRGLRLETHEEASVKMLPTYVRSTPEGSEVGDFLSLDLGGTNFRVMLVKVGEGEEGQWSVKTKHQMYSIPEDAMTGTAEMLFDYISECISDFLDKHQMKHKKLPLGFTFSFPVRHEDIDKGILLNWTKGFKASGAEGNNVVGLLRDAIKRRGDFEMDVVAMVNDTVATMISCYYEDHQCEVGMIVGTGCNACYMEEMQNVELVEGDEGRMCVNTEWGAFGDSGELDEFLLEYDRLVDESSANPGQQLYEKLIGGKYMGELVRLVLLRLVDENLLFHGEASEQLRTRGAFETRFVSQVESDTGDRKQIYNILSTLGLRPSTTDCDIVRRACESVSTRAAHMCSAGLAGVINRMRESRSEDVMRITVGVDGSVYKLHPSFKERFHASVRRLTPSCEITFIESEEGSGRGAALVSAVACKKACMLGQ
Put plainly: Inhibition of recombinant human N-terminal GST-fused glucokinase expressed in Escherichia coli using […] by spectrophotometric assay.

Assay [9] has as its target T2, Isocitrate dehydrogenase [NADP], mitochondrial (Homo sapiens, UniProt P48735).
T2 sequence (P48735 whole entry): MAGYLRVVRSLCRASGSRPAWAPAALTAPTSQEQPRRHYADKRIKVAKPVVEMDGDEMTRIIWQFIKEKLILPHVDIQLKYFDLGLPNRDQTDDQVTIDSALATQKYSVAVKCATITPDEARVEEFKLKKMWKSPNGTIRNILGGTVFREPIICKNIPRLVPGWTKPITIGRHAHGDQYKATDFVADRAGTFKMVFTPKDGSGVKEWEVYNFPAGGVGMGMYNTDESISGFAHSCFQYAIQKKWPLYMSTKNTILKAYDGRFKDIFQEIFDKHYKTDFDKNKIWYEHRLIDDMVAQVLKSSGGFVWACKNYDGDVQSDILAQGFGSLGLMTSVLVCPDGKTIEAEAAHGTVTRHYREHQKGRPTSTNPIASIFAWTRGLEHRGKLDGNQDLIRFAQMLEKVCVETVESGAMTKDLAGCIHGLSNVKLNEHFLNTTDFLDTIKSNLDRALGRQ
Put plainly: Inhibition of recombinant human N-terminal GST-fused wild-type IDH2 using sodium (D)-isocitrate as substrate preincubated for 15 mins followed by substrate addition by fluorescence assay.

The subject of assay [10] is Isocitrate dehydrogenase [NADP] cytoplasmic (Homo sapiens), O75874 [R132H]. Put plainly: Inhibition of human IDH1 R132H mutant expressed in human U87MG cells assessed as reduction in 2-HG production after 48 hrs by LC-MS/MS analysis. The assay is classed as cell-based.
Assay [11] shares this test system. Nature of the assay: Inhibition of human IDH1 R132H mutant expressed in human U87MG cells assessed as reduction in 2-HG production at 5 to 20 uM after 48 hrs by LC-MS/MS analysis. It counts as cell-based.
The test system is the same in assay [12]. Put plainly: Inhibition of IDH1 R132H mutant in human TF1 cells assessed as reversal of cell differentiation block by measuring increase in HBG mRNA expression at 5 to 10 uM after 7 days by RT-qPCR analysis. The assay is classed as cell-based.

Structures are written as SMILES. Activity calls are given as the source filed them. The calls are words filed in the database; no cut-off is given here.

Isocitrate dehydrogenase [NADP] cytoplasmic (Homo sapiens), O75874 [R132H], sequence (O75874 whole entry R132H, the tested form may be a part): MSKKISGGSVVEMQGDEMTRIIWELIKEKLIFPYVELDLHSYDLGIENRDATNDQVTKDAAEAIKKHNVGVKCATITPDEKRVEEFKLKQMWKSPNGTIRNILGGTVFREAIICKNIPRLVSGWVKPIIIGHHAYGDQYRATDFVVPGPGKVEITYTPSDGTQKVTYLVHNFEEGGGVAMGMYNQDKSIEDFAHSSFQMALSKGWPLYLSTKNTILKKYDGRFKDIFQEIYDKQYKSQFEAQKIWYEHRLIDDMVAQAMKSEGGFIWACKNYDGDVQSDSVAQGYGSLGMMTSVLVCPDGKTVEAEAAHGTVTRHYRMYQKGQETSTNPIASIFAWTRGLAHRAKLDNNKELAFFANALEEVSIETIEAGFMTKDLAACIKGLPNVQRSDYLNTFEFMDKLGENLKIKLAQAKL
Isocitrate dehydrogenase [NADP] cytoplasmic (Homo sapiens, UniProt O75874, R132H), sequence (O75874 2-414 R132H limits assumed): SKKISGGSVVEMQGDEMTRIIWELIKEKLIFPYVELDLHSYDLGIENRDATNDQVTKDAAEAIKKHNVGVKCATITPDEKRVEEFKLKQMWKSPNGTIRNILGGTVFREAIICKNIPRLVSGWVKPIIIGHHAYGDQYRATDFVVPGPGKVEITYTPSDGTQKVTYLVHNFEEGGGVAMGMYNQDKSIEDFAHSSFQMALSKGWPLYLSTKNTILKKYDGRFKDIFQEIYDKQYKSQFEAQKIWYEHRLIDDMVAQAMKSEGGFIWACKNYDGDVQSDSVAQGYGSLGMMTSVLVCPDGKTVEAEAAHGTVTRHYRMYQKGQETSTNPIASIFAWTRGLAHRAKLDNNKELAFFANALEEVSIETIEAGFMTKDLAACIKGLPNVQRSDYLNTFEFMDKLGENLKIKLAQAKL
Isocitrate dehydrogenase [NADP] cytoplasmic (Homo sapiens, UniProt O75874, R132C), sequence (O75874 2-414 R132C limits assumed): as the sequence (O75874 2-414 R132H limits assumed) above, with H131C counted along it
Isocitrate dehydrogenase [NADP] cytoplasmic (Homo sapiens, UniProt O75874), sequence (O75874 whole entry, the tested form may be a part): as the sequence (O75874 whole entry R132H, the tested form may be a part) above, with H132R counted along it
Isocitrate dehydrogenase [NADP] cytoplasmic (Homo sapiens, UniProt O75874, R132L), sequence (O75874 2-414 R132L limits assumed): as the sequence (O75874 2-414 R132H limits assumed) above, with H131L counted along it

For orientation: IC50 means the concentration at which inhibition is half-maximal. In the case of `O=C1NC(=O)C(n2nnc3ccccc32)=C1c1cn(CCCn2ccnc2)c2ccccc12`, in assay [1], the IC50 came to 1.4 µM.
For the compound `O=C1NC(=O)C(c2cn(CCCn3ccnc3)c3ccccc23)=C1c1ccccc1`, the 50% inhibitory concentration (IC50) in assay [1] is 1.98 µM.
Same read-out and setting: the value for `CCCCn1nc(C2=C(c3cn(CCCn4ccnc4)c4ccccc34)C(=O)NC2=O)c2cccnc21` was 0.95 µM.
Usually inhibition stands for the percentage by which the read-out fell short of the control. For the compound `Cn1nc(C2=C(c3cn(CCCN4CCOCC4)c4ccccc34)C(=O)NC2=O)c2cccnc21`, in [2], the inhibition came out at 7.36%.
Take `Cn1nc(C2=C(c3cn(CCn4ccnc4)c4ccccc34)C(=O)NC2=O)c2cccnc21`: the 50% inhibitory concentration (IC50) in [1] amounted to 4.42 µM.
In the case of `Cc1ccccc1C(C(=O)NC1CCCCC1)N(C(=O)Cn1ccnc1C)c1cccc(F)c1` (stereo not given), the IC50 in assay [3] was 0.186 µM; in [1], 0.02 µM; in assay [4], greater than 20 µM; in assay [5], 0.227 µM; in assay [6], greater than 20 µM; in [7], greater than 20 µM. In addition, the IC50 in assay [8] and in [9] was greater than 20 µM throughout.
Take `Cn1nc(C2=C(c3cn(CCCn4ccnc4)c4ccc(Br)cc34)C(=O)NC2=O)c2cccnc21`: in assay [1], the concentration for half-maximal inhibition (IC50) came to 5 µM.
Same read-out and setting: with `CCn1nc(C2=C(c3cn(CCCn4ccnc4)c4ccccc34)C(=O)NC2=O)c2cccnc21` the figure was 0.23 µM; with `CN1C(=O)C(c2cn(CCCn3ccnc3)c3ccccc23)=C(c2nn(C)c3ncccc23)C1=O`, 0.93 µM; with `O=C1NC(=O)C(n2ccc3cnccc32)=C1c1cn(CCCn2ccnc2)c2ccccc12`, 3.72 µM.
With `Cn1nc(C2=C(c3cn(CCCn4ccnc4)c4cc(F)ccc34)C(=O)NC2=O)c2cccnc21`, the IC50 in [3] is 0.246 µM; in assay [1] it was 0.09 µM; in assay [4], greater than 20 µM; in assay [5] it was 0.334 µM; in assay [6] it was greater than 20 µM; in assay [7], greater than 20 µM. Also, the IC50 in assay [8] and in assay [9] was greater than 20 µM in each case. Further, the inhibition entry in assay [10] was “Dose-dependent effect”.
On to `O=C1NC(=O)C(n2ccc3ccncc32)=C1c1cn(CCCn2ccnc2)c2ccccc12`, for which the IC50 in assay [1] stood at 1.45 µM.
On the same count and under the same terms, with `O=C1NC(=O)C(c2cn(CCCn3ccnc3)c3ccccc23)=C1c1cc[nH]c1` the figure was 1.58 µM.
Turning to `Cn1cc(C2=C(c3cn(CCCn4ccnc4)c4ccccc34)C(=O)NC2=O)c2ccccc21`, the IC50 in [1] stood at 1.48 µM.
`Cn1nc(C2=C(c3cn(CCCn4ccnc4)c4cccc(Br)c34)C(=O)NC2=O)c2cccnc21`: the IC50 in [1] was 0.93 µM.
Consider `Cn1nc(C2=C(c3cn(CCCCn4ccnc4)c4ccccc34)C(=O)NC2=O)c2cccnc21`, for which the IC50 in assay [3] was 0.311 µM; in assay [1], 0.1 µM; in assay [4], greater than 20 µM; in [5] it was 0.415 µM; in assay [6], greater than 20 µM; in assay [7], greater than 20 µM. Also, the IC50 in assay [8] and in assay [9] was greater than 20 µM throughout. Moreover, the inhibition result in [11] was “inactive”.
Consider `Cc1ccc2c(C3=C(c4nn(C)c5ncccc45)C(=O)NC3=O)cn(CCCn3ccnc3)c2c1`, for which the half-inhibitory concentration (IC50) in assay [3] was 0.189 µM; in assay [1] it was 0.06 µM; in assay [4] it was greater than 20 µM; in [5], 0.483 µM; in [6], greater than 20 µM; in [7], greater than 20 µM. For the same compound, the IC50 in assay [8] and in [9] was greater than 20 µM throughout. Moreover, in assay [10], the inhibition result was “Dose-dependent effect”.
For the compound `Cn1cc(C2=C(c3nn(CCCn4ccnc4)c4ncccc34)C(=O)NC2=O)c2ccccc21`, the IC50 in [1] was determined as 1.28 µM.
The same measure, in the same setting: the value for `COc1ccc2c(c1)c(C1=C(c3nn(C)c4ncccc34)C(=O)NC1=O)cn2CCCn1ccnc1` was 13.6 µM.
The same measure, in the same setting: with `O=C1NC(=O)C(c2cn(CCCn3ccnc3)c3ccccc23)=C1c1cccc2ccccc12` the figure was 3.05 µM; with `COc1ccc2c(C3=C(c4nn(C)c5ncccc45)C(=O)NC3=O)cn(CCCn3ccnc3)c2c1`, 0.19 µM.
On to `Cn1nc(C2=C(c3cn(CCCn4ccnc4)c4cc(Br)ccc34)C(=O)NC2=O)c2cccnc21`, for which the IC50 was 0.192 µM in assay [3]; 0.06 µM in assay [1]; greater than 20 µM in assay [4]; 0.46 µM in [5]; greater than 20 µM in assay [6]; greater than 20 µM in assay [7]. The IC50 in [8] and in [9] was greater than 20 µM throughout. For the same compound, the inhibition result in [10] is “Dose-dependent effect”. For the same compound, the inhibition entry in [12] is “Active”.
In the case of `Cn1nc(C2=C(c3cn(CCCn4ccnc4)c4ccc(F)cc34)C(=O)NC2=O)c2cccnc21`, the IC50 in assay [1] was 0.81 µM.
On the same count and under the same terms, with `Cc1cccc2c(C3=C(c4nn(C)c5ncccc45)C(=O)NC3=O)cn(CCCn3ccnc3)c12` the figure was 0.29 µM; with `O=C1NC(=O)C(c2cn(CCCn3ccnc3)c3ccccc23)=C1c1coc2ncccc12`, 2.22 µM.
As to `Cn1nc(C2=C(c3cn(CCCn4ccnc4)c4cc(Cl)ccc34)C(=O)NC2=O)c2cccnc21`, the IC50 in assay [3] is 0.307 µM; in assay [1], 0.14 µM; in assay [4], greater than 20 µM; in assay [5], 0.423 µM; in [6] it was greater than 20 µM; in assay [7], greater than 20 µM. In addition, the IC50 in assay [8] and in assay [9] was greater than 20 µM throughout. Further, in assay [10], the inhibition entry was “Dose-dependent effect”.
With `Cn1nc(C2=C(c3cn(CCCn4ccnc4)c4ccccc34)C(=O)NC2=O)c2ccccc21`, the IC50 in [1] is 1.54 µM.
For `O=C1NC(=O)C(n2cnc3ccccc32)=C1c1cn(CCCn2ccnc2)c2ccccc12`, the IC50 in [1] was found to be 7.91 µM.
`Cn1nc(C2=C(c3cn(CCCO)c4ccccc34)C(=O)NC2=O)c2cccnc21`: the IC50 in assay [1] came to 39.6 µM.
For the compound `Cn1nc(C2=C(c3cn(CCCn4cncn4)c4ccccc34)C(=O)NC2=O)c2cccnc21`, the IC50 in [1] was 11.9 µM.
As to `Cn1nc(C2=C(c3cn(CCCn4ccnc4)c4ccccc34)C(=O)NC2=O)c2cccnc21`, the IC50 is 0.398 µM in assay [3]; 0.05 µM in assay [1]; greater than 20 µM in assay [4]; 0.386 µM in assay [5]; greater than 20 µM in assay [6]; greater than 20 µM in assay [7]. The IC50 in assay [8] and in assay [9] was greater than 20 µM each time. In assay [11], the inhibition entry was “inactive”.
For the compound `Cn1cc(C2=C(c3nn(CCCN4CCOCC4)c4ncccc34)C(=O)NC2=O)c2ccccc21`, the inhibition in [2] is 17.3%.
Same read-out and setting: with `Cn1cc(C2=C(c3nn(CCCn4cncn4)c4ncccc34)C(=O)NC2=O)c2ccccc21` the figure was 20.6%; with `Cn1nc(C2=C(c3c[nH]c4ccccc34)C(=O)NC2=O)c2cccnc21`, 38.1%.
